Data on 1 compound can be found in patent US20250059229A1, “Compositions and Methods for Selective Labeling of Secondary Amines” (Emory University, priority 2021, published 2025).

Molecules are shown by their SMILES.

This data set is described as follows: Fluorescence (chromophoric) properties of 2H-indazole-3-carbaldehyde. Type of data set: physicochemical. As to conditions: FIG. 9D.

Consider `O=Cc1[nH]nc2ccccc12` [2H-indazole-3-carbaldehyde], for which the fluorescence wavelength entry was “about 500 nm”. The “increase in fluorescence as compared to unmodified PAF” value (compared to unmodified PAF) came out at 100 fold.
